The target in test [1] is T1, urate transporter 1 (URAT1) (Homo sapiens, UniProt Q96S37).
T1 construct: gene SLC22A12
T1 sequence (Q96S37 1-553): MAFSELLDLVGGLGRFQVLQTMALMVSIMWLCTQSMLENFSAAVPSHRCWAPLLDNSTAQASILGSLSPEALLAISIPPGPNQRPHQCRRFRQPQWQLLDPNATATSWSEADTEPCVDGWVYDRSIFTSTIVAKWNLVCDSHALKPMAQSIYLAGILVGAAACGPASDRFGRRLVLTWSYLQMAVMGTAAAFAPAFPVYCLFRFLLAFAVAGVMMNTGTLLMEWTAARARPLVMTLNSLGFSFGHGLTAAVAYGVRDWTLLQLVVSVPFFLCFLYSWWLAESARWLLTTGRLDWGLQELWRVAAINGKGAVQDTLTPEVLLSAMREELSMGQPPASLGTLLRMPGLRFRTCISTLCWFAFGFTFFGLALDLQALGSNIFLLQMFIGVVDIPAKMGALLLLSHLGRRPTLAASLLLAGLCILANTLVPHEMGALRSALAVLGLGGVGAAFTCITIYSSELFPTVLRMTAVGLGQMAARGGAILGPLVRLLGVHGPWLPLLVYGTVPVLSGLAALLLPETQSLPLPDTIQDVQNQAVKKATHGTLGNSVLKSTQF
Briefly: non-isotopic uric acid uptake inhibition in URAT1-overexpressing HEK293 cells. It counts as cell-based.

Test [2] addresses T1, urate transporter 1 (URAT1). Briefly: non-isotopic uric acid uptake inhibition in URAT1-overexpressing HEK293 cells (positive control drug). It counts as cell-based.
The target in test [3] is T2, xanthine oxidoreductase (XOR) (Bos taurus, UniProt P80457).
T2 construct: gene XDH
T2 sequence (P80457 2-1332): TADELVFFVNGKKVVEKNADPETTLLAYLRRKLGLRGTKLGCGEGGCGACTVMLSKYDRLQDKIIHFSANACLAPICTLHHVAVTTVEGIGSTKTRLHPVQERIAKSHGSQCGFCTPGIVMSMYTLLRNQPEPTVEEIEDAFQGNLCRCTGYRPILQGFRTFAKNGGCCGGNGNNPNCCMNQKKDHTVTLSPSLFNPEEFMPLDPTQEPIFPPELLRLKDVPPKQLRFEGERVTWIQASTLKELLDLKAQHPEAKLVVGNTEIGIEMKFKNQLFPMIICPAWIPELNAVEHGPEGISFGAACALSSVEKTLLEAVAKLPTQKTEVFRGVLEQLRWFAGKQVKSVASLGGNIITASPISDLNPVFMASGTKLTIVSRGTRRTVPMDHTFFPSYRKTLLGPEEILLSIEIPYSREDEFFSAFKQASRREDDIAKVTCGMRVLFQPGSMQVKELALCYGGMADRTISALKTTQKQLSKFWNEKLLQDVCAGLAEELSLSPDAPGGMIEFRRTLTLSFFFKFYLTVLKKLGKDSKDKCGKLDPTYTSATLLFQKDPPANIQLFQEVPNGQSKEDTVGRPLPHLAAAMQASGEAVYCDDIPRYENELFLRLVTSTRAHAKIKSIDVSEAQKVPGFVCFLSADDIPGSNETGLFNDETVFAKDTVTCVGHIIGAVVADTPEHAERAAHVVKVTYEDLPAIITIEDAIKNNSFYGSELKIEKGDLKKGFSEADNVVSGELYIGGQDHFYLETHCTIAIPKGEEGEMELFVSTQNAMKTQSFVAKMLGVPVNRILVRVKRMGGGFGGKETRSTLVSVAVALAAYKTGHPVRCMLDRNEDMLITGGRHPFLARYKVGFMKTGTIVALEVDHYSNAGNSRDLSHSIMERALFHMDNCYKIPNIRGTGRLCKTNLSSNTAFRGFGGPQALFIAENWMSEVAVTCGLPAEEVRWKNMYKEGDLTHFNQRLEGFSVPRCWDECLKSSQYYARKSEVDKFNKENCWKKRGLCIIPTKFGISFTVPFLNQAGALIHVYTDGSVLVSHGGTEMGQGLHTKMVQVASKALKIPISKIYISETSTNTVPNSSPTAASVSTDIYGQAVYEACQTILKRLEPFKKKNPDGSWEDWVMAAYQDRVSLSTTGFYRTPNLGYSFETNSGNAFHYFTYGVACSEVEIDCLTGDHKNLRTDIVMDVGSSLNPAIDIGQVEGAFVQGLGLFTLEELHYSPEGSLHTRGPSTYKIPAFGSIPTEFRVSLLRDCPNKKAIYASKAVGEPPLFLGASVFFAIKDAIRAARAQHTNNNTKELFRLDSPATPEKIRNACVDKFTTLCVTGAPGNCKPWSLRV

What is called IC50 is the concentration that inhibits the measured activity by half. Lower therefore signals greater potency in that assay. With `O=C(O)C1(Sc2ccccc2N2CCOc3ccccc32)CCC1` [CC18002], the IC50 in test [1] is 1690 nM.
`O=C(O)C1(Sc2ccnc3ccc(Br)cc23)CCC1` [SHR4640] yielded an IC50 in test [2] of 130 nM.
`Cc1nc(-c2ccc(OCC(C)C)c(C#N)c2)sc1C(=O)O` [febuxostat]: the “% inhibition at 0.1 μM” value in test [3] was found to be 94.8.

The values are drawn from article PMC10893275, “A System for Discovering Novel Uricosurics Targeting Urate Transporter 1 Based on In Vitro and In Vivo Modeling” (Pharmaceutics, 2024).
